Like-named read-outs stand apart in the source and are kept apart here. Values belong to the compound of their own block, whether it stands above or below them.
Columns and labels:
[1] = target: T1, 5-HT1A receptor (Rattus norvegicus, UniProt P19327); experiment: Inhibition of [^3 H]-8-OH-DPAT binding to rat hippocampal membrane homogenates; details: for Ki: against [^3 H]-8-OH-DPAT, rat hippocampus membranes, read-out: K1 (inhibition constant)
T1 construct: from tissue; host or cells: rat hippocampus membrane homogenates
T1 sequence (P19327 1-422): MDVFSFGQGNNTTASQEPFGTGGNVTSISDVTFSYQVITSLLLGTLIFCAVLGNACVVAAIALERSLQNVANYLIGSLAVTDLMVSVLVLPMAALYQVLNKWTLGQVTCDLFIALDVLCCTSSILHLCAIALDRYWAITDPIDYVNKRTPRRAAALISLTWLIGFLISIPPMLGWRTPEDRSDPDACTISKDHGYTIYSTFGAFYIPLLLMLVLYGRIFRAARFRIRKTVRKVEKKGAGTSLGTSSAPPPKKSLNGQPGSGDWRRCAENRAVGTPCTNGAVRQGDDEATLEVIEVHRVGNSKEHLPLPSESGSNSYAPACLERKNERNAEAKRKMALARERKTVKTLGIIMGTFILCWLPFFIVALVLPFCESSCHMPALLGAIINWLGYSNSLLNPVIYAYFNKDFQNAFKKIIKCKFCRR
Procedure: The hippocampal homogenates were prepared in 100 volumes of ice-cold Tris-HCl buffer (50mM, pH 7.4) and centrifuged at 20,000 g for 20 minutes. […] The final pellets were resuspended in the Tris-buffer containing 2mM of MgCl2. […] The tubes were incubated at 37° C. for fifteen minutes and then terminated by vacuum filtration through glass filters (Schleicher & Schuell, No. 25, Keene, N.H.) soaked with 1% polyethylimine. […] Both Scatchard and competition experiments were analyzed using the iterative least-squarecurve fitting program LIGAND.

[2] = test system: dopamine D2L receptor; experiment: Specific binding of [^125 I]trans-7-OH-PIPAT to D2L receptors expressed in Sf9 cells; set-up: species or system rat; details: data not shown
[3] = test system: dopamine D2S receptor; experiment: Specific binding of [^125 I]trans-7-OH-PIPAT to D2S receptors expressed in Sf9 cells; set-up: species or system rat; details: data not shown
[4] = Stability of the radiolabelled product on storage (HPLC); assay type: physicochemical
Procedure: Hydrogen peroxide ([…]) was added to a mixture of […] (1mg/ml EtOH), […] and I-125 (2-3 mCi) in a sealed vial. The reaction was allowed to proceed for 20 min at room temperature, and was then terminated by addition of 0.1 ml of sodium bisulfite (300 mg/ml). The reaction mixture was extracted with ethyl acetate (3×1 ml) after neutralization with saturated NaHCO3 solution. The extracted ethyl acetate layers were evaporated to dryness, and the remaining residue was dissolved in EtOH and purified by HPLC using a reverse phase column (PRP-1 column, Hamilton Co., Reno, Nev.) eluted with an isocratic solvent of 80% acetonitrile-20% pH 7.0 buffer (5 mM 3,3'-dimethylglutaric acid). The fractions containing the desired product were collected, condensed and re-extracted with ethyl acetate (3×1 ml). The no-carrier-added final product (purity >98%) was evaporated to dryness and redissolved in […] with 100 mg ascorbic acid added as an anti-oxidant.
No-carrier-added [^125 I ]trans-8-OH-PIPAT(^125 I]8) was prepared by an iododestannylation reaction similar to the procedure reported previously (Acta. Chim. Scan., 1988, B42, 231-236). Hydrogen peroxide (50 μl 3% w/v) was added to a mixture of 50 μl of tributyltin precursor, 11 (11 mg/ml EtOH), 50 μl of 1N HCl and I-125 (2-3 mCi) in a sealed vial. The reaction was allowed to proceed for 20 minutes at room temperature, and was then terminated by addition of 0.1 ml of sodium bisulfite (300 mg/ml). The reaction mixture was extracted with ethyl acetate (3×1 ml) after neutralization with saturated NaHCO3 solution. The extracted ethyl acetate layers were evaporated to dryness, and the remaining residue was dissolved in EtOH and purified by HPCL using a reverse phase column (PRP-1 column, Hamilton Co., Reno, Nev.) eluted with an isocratic solvent of 80% acetonitrile-20% pH 7.0 buffer (5 mM 3,3'-dimethylglutaric acid); the retention time was 9 minutes (1 ml/min). The fractions containing the desired product were collected, condensed and re-extracted with ethyl acetate (3×1 ml). The final product of no-carrier-added (purity>98%) was evaporated to dryness and redissolved in 100 μl of 50% EtOH with 100 μg of ascorbic acid added as an anti-oxidant. The final product [^125 I] trans-8-OH-PIPAT(^125 I]8) was stored at -20° C.

Structure (SMILES): CCCN(C/C=C/[125I])C1CCc2ccc(O)cc2C1 (stereo not drawn) [[^125 I]trans-7-OH-PIPAT]
specific binding toward D2L [2]: no specific binding | specific binding toward D2S [3]: no specific binding | stability of the product on storage [4]: stable for at least four weeks | purity after storage for at least four weeks ([4]; 50% etoh with ascorbic acid, 672 h): > 95%

Structure (SMILES): Oc1cccc2c1CC(NC/C=C/I)CC2 (racemic) [(±)trans-8-OH-IPAT, 8-Hydroxy-2-(N-3'-iodo-2'propenyl)aminotetralin]
Ki [1]: 10 ± 2 nM

More lines, main results first:

Ki [1]: 0.92 ± 0.13 nM
Structure (SMILES): CCCN(C/C=C/I)C1CCc2cccc(O)c2C1 (mixture of isomers) [(±)trans-8-OH-PIPAT, trans-8-Hydroxy-2-[N-propyl-N-(3'-iodo-2'propenyl)] aminotetralin]
affinity / selectivity for 5-HT1A [1]: unique high affinity and selectivity toward serotonin 5-HT1A sites

Ki [1]: 12.6 ± 1.5 nM
Structure (SMILES): CCCN(C/C=C/I)C1CCc2cccc(OC)c2C1 (mixture of isomers) [(±)trans-8-OMe-PIPAT, trans-8-Methoxy-2-[N-propyl-N-(3'-iodo-2'propenyl)]aminotetralin]

purity after storage for at least four weeks ([4]; -20° C., analyzed by HPLC, 40320 min): 95% | stability of the product on storage ([4]; stored at -20° C., 50% EtOH with ascorbic acid): stable for at least four weeks
Structure (SMILES): CCCN(C/C=C/[125I])C1CCc2cccc(O)c2C1 (stereo not drawn) [[^125 I] trans-8-OH-PIPAT]

— patent US5690906A (The Trustees of the University of Pennsylvania, priority 1995, dated 1997)
